Literature values in US20210251559A1, “METHODS FOR DIAGNOSING, MONITORING AND TREATING NEUROLOGICAL DISEASES AND DISORDERS” (CuraSen Therapeutics, Inc., priority 2018, published 2021).

Test system: Ts65Dn mice
Settings: increasing brain NE levels

## N[C@H](C(=O)O)[C@H](O)c1ccc(O)c(O)c1 [L-DOPS, L-threo-3,4-dihydroxyphenylserine]
  contextual learning: restored contextual learning
